Source: ChEMBL document CHEMBL5537164, “Discovery of Potent, Orally Bioavailable, Tricyclic NLRP3 Inhibitors” (J Med Chem, 2024)
Converted amounts (≈) assume the structure as drawn.

Key:
[1] = Volume of distribution at steady state in C57BL/6 mouse at 3 mg/kg, po or 1 mg/kg, iv measured after 24 hrs by LC-MS/MS analysis; format: ADME, organism-based; conditions: in vivo
[2] = Half-life in C57BL/6 mouse at 3 mg/kg, po or 1 mg/kg, iv measured after 24 hrs by LC-MS/MS analysis; format: ADME, organism-based; conditions: in vivo
[3] = Dose normalized AUC in C57BL/6 mouse at 3 mg/kg, po measured after 24 hrs by LC-MS/MS analysis; format: ADME, organism-based; conditions: in vivo
[4] = Oral bioavailability in C57BL/6 mouse at 3 mg/kg measured after 24 hrs by LC-MS/MS analysis; format: ADME, organism-based; conditions: in vivo
[5] = Volume of distribution at steady state in Sprague-Dawley rat at 10 mg/kg, po or 1 mg/kg, iv measured after 24 hrs by LC-MS/MS analysis; format: ADME, organism-based; conditions: in vivo
[6] = Half-life in Sprague-Dawley rat at 10 mg/kg, po or 1 mg/kg, iv measured after 24 hrs by LC-MS/MS analysis; format: ADME, organism-based; conditions: in vivo
[7] = Dose normalized AUC in Sprague-Dawley rat at 10 mg/kg, po measured after 24 hrs by LC-MS/MS analysis; format: ADME, organism-based; conditions: in vivo
[8] = Oral bioavailability in Sprague-Dawley rat at 10 mg/kg measured after 24 hrs by LC-MS/MS analysis; format: ADME, organism-based; conditions: in vivo
[9] = Volume of distribution at steady state in Beagle dog at 1 mg/kg, po or 0.1 mg/kg, iv measured after 24 hrs by LC-MS/MS analysis; format: ADME, organism-based, Canis lupus familiaris; conditions: in vivo
[10] = Dose normalized AUC in Beagle dog at 1 mg/kg, po measured after 24 hrs by LC-MS/MS analysis; format: ADME, organism-based, Canis lupus familiaris; conditions: in vivo
[11] = Oral bioavailability in Beagle dog at 1 mg/kg measured after 24 hrs by LC-MS/MS analysis; format: ADME, organism-based, Canis lupus familiaris; conditions: in vivo
[12] = Equilibrium solubility of compound in DMSO at pH 6.8 by shake flask method; format: physicochemical
[13] = Lipophilicity, logD of compound at pH 7.4; format: physicochemical; conditions: buffer
[14] = Metabolic stability in human liver microsomes assessed as intrinsic clearance; format: ADME, Microsome; conditions: read-out: CLH
[15] = Metabolic stability in mouse liver microsomes assessed as intrinsic clearance; format: ADME, Microsome; conditions: read-out: CLH
[16] = Clearance in C57BL/6 mouse at 1 mg/kg, iv measured after 24 hrs by LC-MS/MS analysis; format: ADME, organism-based; conditions: in vivo
[17] = Oral bioavailability in C57BL/6 mouse measured after 24 hrs by LC-MS/MS analysis; format: ADME, organism-based; conditions: in vivo
[18] = AUC (0 to infinity) in C57BL/6 mouse at 3 mg/kg, po measured after 24 hrs by LC-MS/MS analysis; format: ADME, organism-based; conditions: in vivo
[19] = molecular target: Nuclear factor NF-kappa-B complex (Homo sapiens, UniProt P19838+Q00653+Q04206); assay: Inhibition of NF-kappaB in PMA-differentiated human THP-1 cells assessed as reduction in TNF-alpha release preincubated with compound for 1 hrs followed by Pam3CSK4 stimulation and measured after 3 hrs by HTRF assay; format: cell-based
[20] = molecular target: Voltage-gated inwardly rectifying potassium channel KCNH2 (Homo sapiens, UniProt Q12809); assay: Displacement of [3H]-dofetilide from human ERG; format: toxicity
[21] = In vivo inhibition of NLRP3 in LPS/ATP-induced C57BL/6 mouse model of acute peritonitis assessed as reduction in IL-1beta level at 100 mg/kg, po preadministered with compound for 1 hrs followed by LPS stimulation for 2 hrs and measured 15 mins after ATP addition by ELISA relative to control; format: functional; conditions: time 3.25 hrs
[22] = In vivo inhibition of NLRP3 in LPS/ATP-induced C57BL/6 mouse model of acute peritonitis assessed as reduction in IL-1beta level at 30 mg/kg, po preadministered with compound for 1 hrs followed by LPS stimulation for 2 hrs and measured 15 mins after ATP addition by ELISA relative to control; format: functional; conditions: time 3.25 hrs
[23] = In vivo inhibition of NLRP3 in LPS/ATP-induced C57BL/6 mouse model of acute peritonitis assessed as reduction in IL-1beta level at 10 mg/kg, po preadministered with compound for 1 hrs followed by LPS stimulation for 2 hrs and measured 15 mins after ATP addition by ELISA relative to control; format: functional; conditions: time 3.25 hrs
[24] = In vivo inhibition of NLRP3 in LPS/ATP-induced C57BL/6 mouse model of acute peritonitis assessed as reduction in IL-1beta level at 3 mg/kg, po preadministered with compound for 1 hrs followed by LPS stimulation for 2 hrs and measured 15 mins after ATP addition by ELISA relative to control; format: functional; conditions: time 3.25 hrs
[25] = Drug concentration in blood of C57BL/6 mouse model of acute peritonitis at 30 mg/kg, po preadministered with compound for 1 hrs followed by LPS stimulation for 2 hrs and measured 15 mins after ATP addition by HPLC-MS/MS analysis; format: ADME, organism-based; conditions: whole blood, read-out: Ct
[26] = Drug concentration in blood of C57BL/6 mouse model of acute peritonitis at 10 mg/kg, po preadministered with compound for 1 hrs followed by LPS stimulation for 2 hrs and measured 15 mins after ATP addition by HPLC-MS/MS analysis; format: ADME, organism-based; conditions: whole blood, read-out: Ct
[27] = Drug concentration in blood of C57BL/6 mouse model of acute peritonitis at 50 mg/kg, po preadministered with compound for 1 hrs followed by LPS stimulation for 2 hrs and measured 15 mins after ATP addition by HPLC-MS/MS analysis; format: ADME, organism-based; conditions: whole blood, read-out: Ct
[28] = Thermodynamic solubility of compound at pH 6.8; format: physicochemical; conditions: buffer, read-out: Therm_solubility
[29] = molecular target: Cytochrome P450 3A4 (Homo sapiens, UniProt P08684); assay: Inhibition of CYP3A4 (unknown origin); format: ADME
[30] = molecular target: Cytochrome P450 2D6 (Homo sapiens, UniProt P10635); assay: Inhibition of CYP2D6 (unknown origin); format: ADME
[31] = molecular target: Cytochrome P450 2C9 (Homo sapiens, UniProt P11712); assay: Inhibition of CYP2C9 (unknown origin); format: ADME
[32] = Drug metabolism in rat liver microsomes assessed as N-demethylation of piperidine ring mediated metabolite formation; format: ADME, Microsome
[33] = Drug metabolism in dog liver microsomes assessed as N-demethylation of piperidine ring mediated metabolite formation; format: ADME, Canis lupus familiaris, Microsome
[34] = Drug metabolism in rat liver microsome assessed as thiophene oxidation mediated metabolite formation; format: ADME; conditions: microsomes
[35] = Drug metabolism in dog liver microsome assessed as thiophene oxidation mediated metabolite formation; format: ADME, Canis lupus familiaris; conditions: microsomes
[36] = Drug metabolism in human liver microsome assessed as thiophene oxidation mediated metabolite formation; format: ADME; conditions: microsomes
[37] = Clearance in mouse liver microsomes; format: ADME, Microsome; conditions: read-out: CLH
[38] = Clearance in dog liver microsomes; format: ADME, Canis lupus familiaris, Microsome; conditions: read-out: CLH
[39] = Clearance in human liver microsomes; format: ADME, Microsome; conditions: read-out: CLH
[40] = Protein binding in mouse plasma; format: ADME, cell-free; conditions: read-out: PPB (converted)
[41] = Protein binding in rat plasma; format: ADME, cell-free; conditions: read-out: PPB (converted)
[42] = Clearance in C57BL/6 mouse assessed as hepatic blood flow at 3 mg/kg, po or 1 mg/kg, iv measured after 24 hrs by LC-MS/MS analysis; format: ADME, organism-based, Liver; conditions: in vivo
[43] = Clearance in Sprague-Dawley rat assessed as hepatic blood flow at 10 mg/kg, po or 1 mg/kg, iv measured after 24 hrs by LC-MS/MS analysis; format: ADME, organism-based, Liver; conditions: in vivo

Chain of Cytochrome P450 2D6 (P10635 whole entry): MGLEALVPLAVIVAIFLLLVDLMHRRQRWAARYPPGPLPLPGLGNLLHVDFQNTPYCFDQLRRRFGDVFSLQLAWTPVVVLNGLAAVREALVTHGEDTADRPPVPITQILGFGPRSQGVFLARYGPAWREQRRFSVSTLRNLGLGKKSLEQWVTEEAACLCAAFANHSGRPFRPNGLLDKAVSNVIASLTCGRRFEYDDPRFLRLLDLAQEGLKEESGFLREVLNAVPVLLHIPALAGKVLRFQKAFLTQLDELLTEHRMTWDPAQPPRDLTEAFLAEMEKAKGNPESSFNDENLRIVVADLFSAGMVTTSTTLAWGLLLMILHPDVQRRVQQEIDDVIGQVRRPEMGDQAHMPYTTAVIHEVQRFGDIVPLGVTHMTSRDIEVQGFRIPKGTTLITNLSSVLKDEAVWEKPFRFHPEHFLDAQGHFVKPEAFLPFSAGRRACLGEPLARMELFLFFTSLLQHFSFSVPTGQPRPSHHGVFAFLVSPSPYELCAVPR
Chain of Voltage-gated inwardly rectifying potassium channel KCNH2 (Q12809 whole entry): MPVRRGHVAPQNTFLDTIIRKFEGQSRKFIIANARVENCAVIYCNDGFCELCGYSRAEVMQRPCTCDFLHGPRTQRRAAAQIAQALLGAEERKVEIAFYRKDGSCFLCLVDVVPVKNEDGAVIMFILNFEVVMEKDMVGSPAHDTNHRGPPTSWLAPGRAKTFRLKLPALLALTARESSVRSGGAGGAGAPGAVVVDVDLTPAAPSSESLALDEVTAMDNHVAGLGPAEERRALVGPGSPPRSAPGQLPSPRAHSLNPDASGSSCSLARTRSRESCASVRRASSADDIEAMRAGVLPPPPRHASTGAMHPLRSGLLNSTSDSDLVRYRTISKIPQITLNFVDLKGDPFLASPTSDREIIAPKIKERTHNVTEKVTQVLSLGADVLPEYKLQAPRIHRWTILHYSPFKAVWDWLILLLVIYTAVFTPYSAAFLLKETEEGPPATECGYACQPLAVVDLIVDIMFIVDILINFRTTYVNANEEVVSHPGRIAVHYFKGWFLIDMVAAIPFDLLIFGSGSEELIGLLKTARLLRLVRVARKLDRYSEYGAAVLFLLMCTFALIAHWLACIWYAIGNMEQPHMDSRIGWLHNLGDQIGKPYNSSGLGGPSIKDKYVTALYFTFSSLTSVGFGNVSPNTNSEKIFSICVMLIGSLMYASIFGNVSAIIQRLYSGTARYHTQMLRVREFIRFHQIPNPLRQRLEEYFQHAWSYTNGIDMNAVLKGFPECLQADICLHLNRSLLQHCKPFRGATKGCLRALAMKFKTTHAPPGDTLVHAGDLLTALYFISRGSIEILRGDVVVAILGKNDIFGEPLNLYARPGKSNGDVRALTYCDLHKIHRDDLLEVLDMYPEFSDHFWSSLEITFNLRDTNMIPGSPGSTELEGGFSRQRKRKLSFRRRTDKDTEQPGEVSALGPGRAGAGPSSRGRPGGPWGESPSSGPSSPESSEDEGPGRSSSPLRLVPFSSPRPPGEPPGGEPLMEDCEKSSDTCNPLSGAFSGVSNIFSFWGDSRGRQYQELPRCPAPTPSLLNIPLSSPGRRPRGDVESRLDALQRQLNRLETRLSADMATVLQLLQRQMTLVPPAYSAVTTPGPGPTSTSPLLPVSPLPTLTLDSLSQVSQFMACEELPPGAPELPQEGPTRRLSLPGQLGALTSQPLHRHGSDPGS
Chain of Nuclear factor NF-kappa-B complex (P19838 1-433 limits assumed): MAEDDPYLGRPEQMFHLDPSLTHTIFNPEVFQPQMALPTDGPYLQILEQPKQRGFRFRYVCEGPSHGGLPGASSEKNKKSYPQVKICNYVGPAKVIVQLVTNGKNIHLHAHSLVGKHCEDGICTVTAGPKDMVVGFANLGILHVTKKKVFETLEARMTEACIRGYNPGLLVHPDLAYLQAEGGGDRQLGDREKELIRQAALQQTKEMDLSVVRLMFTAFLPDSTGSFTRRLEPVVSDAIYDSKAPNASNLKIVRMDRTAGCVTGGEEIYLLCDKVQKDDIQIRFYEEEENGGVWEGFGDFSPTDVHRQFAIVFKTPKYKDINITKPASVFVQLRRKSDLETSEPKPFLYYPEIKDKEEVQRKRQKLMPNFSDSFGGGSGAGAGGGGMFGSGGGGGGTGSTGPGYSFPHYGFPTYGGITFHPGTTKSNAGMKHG
Chain of Nuclear factor NF-kappa-B complex (Q00653 1-454 limits assumed): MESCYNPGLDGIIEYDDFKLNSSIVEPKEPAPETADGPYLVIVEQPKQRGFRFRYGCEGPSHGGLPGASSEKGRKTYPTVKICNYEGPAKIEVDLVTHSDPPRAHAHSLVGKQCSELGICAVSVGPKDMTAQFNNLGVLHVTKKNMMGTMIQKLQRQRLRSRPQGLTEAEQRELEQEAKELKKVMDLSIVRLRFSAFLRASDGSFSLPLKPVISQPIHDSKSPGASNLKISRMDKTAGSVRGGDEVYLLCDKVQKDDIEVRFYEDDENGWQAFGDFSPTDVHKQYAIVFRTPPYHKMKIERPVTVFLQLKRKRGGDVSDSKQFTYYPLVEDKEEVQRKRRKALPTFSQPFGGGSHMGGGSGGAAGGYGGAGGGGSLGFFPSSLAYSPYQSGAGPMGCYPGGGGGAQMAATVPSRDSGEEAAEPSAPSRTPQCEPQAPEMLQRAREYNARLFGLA
Chain of Nuclear factor NF-kappa-B complex (Q04206 whole entry): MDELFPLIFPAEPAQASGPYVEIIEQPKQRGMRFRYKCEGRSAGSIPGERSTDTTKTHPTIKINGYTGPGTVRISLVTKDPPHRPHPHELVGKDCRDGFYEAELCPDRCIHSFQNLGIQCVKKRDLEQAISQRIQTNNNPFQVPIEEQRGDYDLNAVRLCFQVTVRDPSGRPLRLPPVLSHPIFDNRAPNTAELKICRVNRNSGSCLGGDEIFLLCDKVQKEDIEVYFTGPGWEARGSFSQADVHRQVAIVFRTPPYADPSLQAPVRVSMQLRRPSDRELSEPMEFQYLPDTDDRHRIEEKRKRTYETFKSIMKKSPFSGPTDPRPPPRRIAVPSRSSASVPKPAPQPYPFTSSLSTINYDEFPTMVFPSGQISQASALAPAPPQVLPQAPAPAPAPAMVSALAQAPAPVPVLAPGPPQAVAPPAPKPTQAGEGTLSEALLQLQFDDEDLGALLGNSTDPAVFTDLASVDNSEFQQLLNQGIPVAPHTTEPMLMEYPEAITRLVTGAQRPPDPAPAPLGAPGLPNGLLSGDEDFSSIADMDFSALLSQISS
Chain of Cytochrome P450 2C9 (P11712 whole entry): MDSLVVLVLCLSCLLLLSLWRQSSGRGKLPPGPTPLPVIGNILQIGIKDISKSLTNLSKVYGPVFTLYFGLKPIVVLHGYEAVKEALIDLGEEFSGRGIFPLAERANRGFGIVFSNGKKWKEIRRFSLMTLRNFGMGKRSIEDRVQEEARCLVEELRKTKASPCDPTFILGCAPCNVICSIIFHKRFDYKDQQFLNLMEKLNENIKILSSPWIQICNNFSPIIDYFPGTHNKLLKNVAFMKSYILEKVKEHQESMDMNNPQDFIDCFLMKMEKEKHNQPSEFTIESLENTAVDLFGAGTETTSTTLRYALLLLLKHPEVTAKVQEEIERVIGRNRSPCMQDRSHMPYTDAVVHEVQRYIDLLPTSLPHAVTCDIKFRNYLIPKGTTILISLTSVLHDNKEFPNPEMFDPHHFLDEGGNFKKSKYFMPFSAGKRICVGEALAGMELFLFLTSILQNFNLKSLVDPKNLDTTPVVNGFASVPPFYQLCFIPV
Chain of Cytochrome P450 3A4 (P08684 whole entry): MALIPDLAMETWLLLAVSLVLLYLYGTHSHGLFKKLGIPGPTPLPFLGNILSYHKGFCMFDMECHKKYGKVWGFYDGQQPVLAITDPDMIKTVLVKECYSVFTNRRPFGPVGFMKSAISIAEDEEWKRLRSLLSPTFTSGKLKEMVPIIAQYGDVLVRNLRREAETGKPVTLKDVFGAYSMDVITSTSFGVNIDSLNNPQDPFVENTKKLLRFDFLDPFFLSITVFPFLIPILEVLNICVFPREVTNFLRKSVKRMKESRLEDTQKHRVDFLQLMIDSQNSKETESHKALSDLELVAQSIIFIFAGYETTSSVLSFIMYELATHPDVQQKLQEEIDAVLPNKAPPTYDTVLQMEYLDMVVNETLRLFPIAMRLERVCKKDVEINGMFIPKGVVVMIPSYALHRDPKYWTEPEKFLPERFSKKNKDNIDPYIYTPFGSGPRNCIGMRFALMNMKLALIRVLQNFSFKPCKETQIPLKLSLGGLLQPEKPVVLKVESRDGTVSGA

Vdss [1]: 3.9 L/kg
half-life [2]: 1 h
AUC/dose [3]: 235 nmol·h/L
bioavailability [4]: 36%
Vdss [5]: 5.5 L/kg
half-life [6]: 3.5 h
AUC/dose [7]: 712 nmol·h/L
bioavailability [8]: 63%
Vdss [9]: 4.1 L/kg
AUC/dose [10]: 2530 nmol·h/L
bioavailability [11]: 89%
solubility [12]: > 1000 µM
logD [13]: 2.3
microsomal CLint [14]: 38 µL/min/mg
microsomal CLint [15]: 103 µL/min/mg
clearance [16]: 58 mL/min/kg
bioavailability [17]: 36%
AUC(0-inf) [18]: 0.718 µM·h
IC50 [19]: > 100 µM
concentration at 3.25 h [25]: 1060 nM
concentration at 3.25 h [26]: 163 nM
concentration at 3.25 h [27]: 1680 nM
solubility thermodynamic [28]: 159 µg/mL (≈ 363 µM)
IC50 [29]: > 25 µM
IC50 [30]: > 25 µM
IC50 [31]: > 25 µM
Drug metabolism [32]: Metabolite_Detected
Drug metabolism [33]: Metabolite_Detected
Drug metabolism [34]: Metabolite_Notdetected
Drug metabolism [35]: Metabolite_Notdetected
Drug metabolism [36]: Metabolite_Notdetected
microsomal CLint [37]: 103 µL/min/mg
microsomal CLint [38]: 39 µL/min/mg
microsomal CLint [39]: 37 µL/min/mg
fraction unbound [40]: 0.03
fraction unbound [41]: 0.22
LBF [42]: 40%
LBF [43]: 40%
SMILES: CN1CCC[C@@H](NC(=O)Cn2nc(C(C)(C)O)n3c(cc4sc(Cl)cc43)c2=O)C1
IC50 [20]: > 30 µM
inhibition in vivo at 100 mg/kg [21]: 98%
inhibition in vivo at 30 mg/kg [22]: 91%
inhibition in vivo at 10 mg/kg [23]: 45%
inhibition in vivo at 3 mg/kg [24]: 34%
